The text below walks through data of patent EP4782449A1, “TRICYCLIC PYRIDINE COMPOUND ACTING AS SARM1 ENZYME ACTIVITY INHIBITOR, AND USE THEREOF” (Artivila (ShenZhen) Innovation Center, Ltd., priority 2023, dated 2025).

The target in one assay is T1, SARM1 (Homo sapiens, UniProt Q6SZW1).
T1 construct: inventors produced full-length SARM1 for NAD enzyme activity experiments, and used it for screening; His (C); made in house; host or cells: HEK293 cells, transient transfection; supernatant of digitonin lysate, no further purification described
T1 sequence (Q6SZW1 28-724): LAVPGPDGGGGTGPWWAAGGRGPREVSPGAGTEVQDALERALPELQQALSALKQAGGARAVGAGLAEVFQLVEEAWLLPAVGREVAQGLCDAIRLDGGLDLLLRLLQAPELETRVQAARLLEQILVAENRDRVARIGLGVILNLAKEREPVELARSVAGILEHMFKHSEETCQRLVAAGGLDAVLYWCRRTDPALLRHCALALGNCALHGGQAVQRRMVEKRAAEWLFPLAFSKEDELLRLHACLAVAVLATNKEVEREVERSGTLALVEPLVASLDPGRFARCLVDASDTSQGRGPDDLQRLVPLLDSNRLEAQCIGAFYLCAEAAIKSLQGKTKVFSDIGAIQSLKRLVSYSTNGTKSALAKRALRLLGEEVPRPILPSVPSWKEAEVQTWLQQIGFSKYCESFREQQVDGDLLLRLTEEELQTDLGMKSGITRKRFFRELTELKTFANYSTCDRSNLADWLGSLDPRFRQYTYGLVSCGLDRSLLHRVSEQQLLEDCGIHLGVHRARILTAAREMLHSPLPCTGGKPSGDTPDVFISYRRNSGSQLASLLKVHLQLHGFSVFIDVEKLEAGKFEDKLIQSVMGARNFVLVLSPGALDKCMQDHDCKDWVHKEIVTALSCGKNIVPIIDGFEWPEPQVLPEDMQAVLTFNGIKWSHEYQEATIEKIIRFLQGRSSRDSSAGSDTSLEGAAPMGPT
In words: In vitro biochemical assay for inhibiting SARM1 enzyme activity (PC6 fluorescence, NADase). The conditions noted are these: full-length SARM1 from transfected HEK293 cells; 50 µM NAD, 50 µM PC6, 50 µM NMN activator; room temperature, 30 minutes; read-out: IC50. How it is done:
The gene sequence of SARM1 protein was amplified using PCR, and the PCR amplification product was constructed into pcDNA3.1-HIS-C plasmid. The above construction was completed by YouBio(Hunan, China). HEK293 cells were cultured in 10 cm dishes using DMEM, and the cells were transfected with 15 μg pcDNA3.1-SARM[…]-C expression plasmid on the following day. Cells were collected 48 hours after transfection, and SARM1 protein expressed in the cells was obtained by digitonin lysis for in vitro activity assay experiments. The specific procedure was as follows: Cells were digested with trypsin-EDTA, then centrifuged at 1000 rpm for 5 minutes, washed once with PBS, and then resuspended in PBS containing 100 μM digitonin, with 0.6 mL PBS for the cells in per 10 cm dish, and lysed for 5 minutes. […] Then the supernatant containing SARM1 protein was collected by centrifugation at 5000 rpm for 10 minutes. […] A group without inhibitor was used as control group. All mixtures were incubated at room temperature for 10 minutes. Then, 50 μM NAD and 50 μM PC6 as substrates and 50 μM NMN as an activator were added to the SARM1 protein incubated with the inhibitor, and the reaction was carried out at room temperature for 30 minutes. The concentrations of each component were the final concentrations in the reaction system. […] Finally, the reaction rate was used to represent the protein activity and calculate the half-maximal inhibitory concentration.

The subject of assay [1] is dorsal root ganglion explants. In words: Axonal Wallerian degeneration assay in mouse DRG explant culture. The class given is cell-based, C57BL/6 male mice. The conditions noted are these: 10 µM test compound, 2 hours pretreatment, axons transected, images at 0 hour and 24 hours. The text has this: The experimental method was based on Gerdts J et al. (Gerdts J, Sasaki Y, Vohra B, Marasa J, Milbrandt J. Image-based screening identifies novel roles for IkappaB kinase and glycogen synthase kinase 3 in axonal degeneration. J Biol Chem. 2011 Aug 12;286(32):28011-8).
Dorsal root ganglia were dissected from 2-month-old C57BL/6 male mice and placed in 35 mm culture dishes containing pre-cooled HBSS buffer. Excess tissue from each dorsal root ganglion was removed and cut into 2-3 explants using a scalpel, and the explants were planted in wells of a 96-well plate coated with 100 ng/mL Matrigel (Corning). 100 µL of DRG culture medium (Neurobasal medium (Gibco) containing 2% B-27 (Gibco), 1% GlutaMax (Gibco), and 10 ng/mL NGF (MCE)) was added, then cultured in a 37°C incubator for one week, with medium change on day 4, and experiments were performed on day 8.
0.1 µL of 10 mM test compound was dissolved in 100 µL DRG culture medium to prepare new culture medium containing 10 µM test compound. The culture medium in the 96-well plate was aspirated and new culture medium containing the test compound was added. Then the dorsal root ganglion explants were incubated with the medium in a 37°C incubator for 2 hours for pre-protection. After 2-hour pretreatment, a glass electrode was used to transect axons in the area near the tissue block, and bright-field images of axons in the same area were captured at 0 hour and 24 hours post axonal degeneration using a 20x objective lens of a microscope (Olympus). Axonal integrity was evaluated using an in-house developed script.

For the molecule `O=C1C(Cc2cc(F)c(F)c(F)c2)CCN1c1ccc2c(c1)COc1cnccc1-2` (centres unmarked) [Compound 5], the IC50 (usually the concentration at which inhibition is half-maximal) on SARM1 was 1000 to 10000 nM. In addition, in assay [1], the “Degree of Protection Against Axonal Wallerian Degeneration” value (“Degree” below) is reported as “A (substantial protection (A) >50%)”.
Consider `O=C1C(Cc2ccc(F)cc2)CCN1c1cc2c(cn1)-c1ccncc1OC2` (centres unmarked) [Compound 128], for which the IC50 on SARM1 is < 100 nM. Besides, the “Degree” value in assay [1] is “A (substantial protection (A) >50%)”.
For `O=C(CCc1ccc(F)cc1)Nc1cc2c(cn1)-c1ccncc1OC2` [Compound 112, 3-(4-fluorophenyl)-N-(5H-pyrano[2,3-c:4,5-c']dipyridin-3-yl)propanamide], in that order: < 100 nM and “A (substantial protection (A) >50%)”.
For `CC(Cc1ccc(F)cc1)C(=O)Nc1ccc2c(c1)COc1cnccc1-2` (centres unmarked) [Compound 73], in that order: 100 to 1000 nM and “A (substantial protection (A) >50%)”.
For `Cc1cncc2c1-c1ccc(NC(=O)CCc3ccc(F)cc3)cc1CO2` [Compound 130, 3-(4-fluorophenyl)-N-(1-methyl-6H-isochromeno[3,4-c]pyridin-8-yl)propanamide], in that order: < 100 nM and “B (partial protection (B): 20% to 50%)”.
As to `O=C(CC1CCc2ccccc21)Nc1ccc2c(c1)COc1cnccc1-2` (centres unmarked) [Compound 76], the IC50 at SARM1 was 100 to 1000 nM. Moreover, in assay [1], the “Degree” value is given as “A (substantial protection (A) >50%)”.
For `CN1Cc2cnccc2-c2ccc(N3CCC(Cc4ccc(F)cc4)C3=O)cc2C1` (centres unmarked) [Compound 133], in that order: 100 to 1000 nM and “B (partial protection (B): 20% to 50%)”.
For the molecule `O=C(CCc1ccc(Br)cc1)Nc1ccc2c(c1)COc1cnccc1-2` [Compound 22], the IC50 on SARM1 fell in the range of 100 to 1000 nM. For the same molecule, in assay [1], the “Degree” value is listed as “A (substantial protection (A) >50%)”.
For `O=C1C(Cc2ccc(Cl)o2)CCN1c1ccc2c(c1)COc1cnccc1-2` (centres unmarked) [Compound 12], in that order: 100 to 1000 nM and “B (partial protection (B): 20% to 50%)”.
For `O=C(CCc1cc(F)c(F)c(F)c1)Nc1ccc2c(c1)COc1cnccc1-2` [Compound 27], in that order: < 100 nM and “B (partial protection (B): 20% to 50%)”.
For `O=C(CCc1ccc(Cl)cc1)Nc1cnc2c(c1)COc1cnccc1-2` [Compound 84], in that order: < 100 nM and “B (partial protection (B): 20% to 50%)”.
Consider `[2H]C1([2H])Oc2cnccc2-c2ccc(N3CCC(Cc4ccc(F)cc4)C3=O)cc21` (centres unmarked) [Compound 146, 3-(4-fluorobenzyl)-1-(6H-isochromeno[3,4-c]pyridin-8-yl-6,6-d2)pyrrolidin-2-one], for which the IC50 at SARM1 is < 100 nM. Besides, the “Degree” value in assay [1] is recorded as “A (substantial protection (A) >50%)”.
For `O=C1C(Cc2cc3ccccc3o2)CCN1c1ccc2c(c1)COc1cnccc1-2` (centres unmarked) [Compound 59], in that order: 1000 to 10000 nM and “B (partial protection (B): 20% to 50%)”.
For `[2H]C1Oc2cnccc2-c2ccc(N3CCC(Cc4ccc(F)cc4)C3=O)cc21` (centres unmarked) [Compound 145, 3-(4-fluorobenzyl)-1-(6H-isochromeno[3,4-c]pyridin-8-yl-6-d)pyrrolidin-2-one], in that order: < 100 nM and “A (substantial protection (A) >50%)”.
For `O=C(CCc1ccc(Cl)s1)Nc1ccc2c(c1)COc1cnccc1-2` [Compound 36], in that order: 1000 to 10000 nM and “A (substantial protection (A) >50%)”.
On to `O=C(CCc1cc(F)cc(F)c1)Nc1ccc2c(c1)COc1cnccc1-2` [Compound 39], for which, at SARM1, the IC50 is < 100 nM. Further, in assay [1], the “Degree” value is listed as “A (substantial protection (A) >50%)”.
For `O=C1C(Cc2ccccc2)CCN1c1ccc2c(c1)COc1cnccc1-2` (centres unmarked) [Compound 2, 3-benzyl-1-(6H-isochromeno[3,4-c]pyridin-8-yl)pyrrolidin-2-one], in that order: 100 to 1000 nM and “A (substantial protection (A) >50%)”.
For `O=C1C(Cc2ccncc2)CCN1c1ccc2c(c1)COc1cnccc1-2` (centres unmarked) [Compound 62], in that order: 100 to 1000 nM and “A (substantial protection (A) >50%)”.
For `O=C(CCc1ccc(Cl)cc1)Nc1ccc2c(c1)COc1cnccc1-2` [Compound 42, 3-(4-chlorophenyl)-N-(6H-isochromeno[3,4-c]pyridin-8-yl)propanamide], in that order: < 100 nM and “A (substantial protection (A) >50%)”.
Consider `O=C1C(Cc2ccc3c(c2)CC3)CCN1c1ccc2c(c1)COc1cnccc1-2` (centres unmarked) [Compound 19], for which, on SARM1, the IC50 was 1000 to 10000 nM. The “Degree” value in assay [1] is “A (substantial protection (A) >50%)”.
For `CN1Cc2cnccc2-c2ccc(NC(=O)CCc3ccc(F)cc3)cc2C1` [Compound 134], in that order: 100 to 1000 nM and “B (partial protection (B): 20% to 50%)”.
For `O=C1C(Cc2cc(F)cc(F)c2)CCN1c1ccc2c(c1)COc1cnccc1-2` (centres unmarked) [Compound 4], in that order: 100 to 1000 nM and “A (substantial protection (A) >50%)”.
Consider `O=C1C(Cc2ccc(F)cc2)CCN1c1ccc2c(c1)COc1cnccc1-2` (centres unmarked) [Compound 10, 3-(4-fluorobenzyl)-1-(6H-isochromeno[3,4-c]pyridin-8-yl)pyrrolidin-2-one], for which the IC50 at SARM1 is < 100 nM. Moreover, in assay [1], the “Degree” value was “A (substantial protection (A) >50%)”.
For `O=C(CCc1ccc(Cl)cc1F)Nc1ccc2c(c1)COc1cnccc1-2` [Compound 40], in that order: 1000 to 10000 nM and “A (substantial protection (A) >50%)”.
For `O=C1C(Cc2ccc(Cl)nc2)CCN1c1ccc2c(c1)COc1cnccc1-2` (centres unmarked) [Compound 17], the IC50 on SARM1 was in the range of 100 to 1000 nM. For the same molecule, the “Degree” value in assay [1] was “B (partial protection (B): 20% to 50%)”.
For `N#Cc1ccc(CC2CCN(c3ccc4c(c3)COc3cnccc3-4)C2=O)cc1` (centres unmarked) [Compound 16], in that order: 1000 to 10000 nM and “A (substantial protection (A) >50%)”.
For `O=C(CCc1c(F)c(F)c(F)c(F)c1F)Nc1ccc2c(c1)COc1cnccc1-2` [Compound 80], in that order: < 100 nM and “A (substantial protection (A) >50%)”.
For `O=C(CCc1ccc(F)c(F)c1)Nc1cnc2c(c1)COc1cnccc1-2` [Compound 87], in that order: < 100 nM and “A (substantial protection (A) >50%)”.
